Where no end group is shown, it is not given here.
How the values were obtained:
[1] = test system: corneal epithelial wound in wild-type mice; test: Corneal wound healing in a mouse model; assay type: in vivo; settings: day 0 to Day 5; treated vs control wild-type mice
From the text: FIGS. 28A and 28B are images and a graph showing results of testing wound healing in a mouse model. FIG. 28A are representative slitlamp biomicroscopy images of murine cornea following the removal of corneal epithelium from Angio-3 treated and control wild-type mice and topical fluorescein staining of the epithelial defect (green). FIG. 28B is a graph of the percentage of wound defect remaining (vertical axis) over time (horizontal axis) in Angio-3 treated and control wild-type mice, n=6 for each group from 2 independent experiments. Both groups are statistically significant. Angio-3 didn't affect the normal wound healing process. Data is represented as mean±S.D.
Two (2)-mm trephine was used to mark the wound size. Epithelium, basement membrane and some stromal layers were removed by peeling using forceps. Fluorescein staining to the wounded area of cornea was done from day 0 to Day 5 (n=6 mice per group from 2 independent experiments). Gentle and meticulous approach when wounding and handling mouse cornea, fluorescein was diluted, slit lamp images had to be taken within a few seconds after staining. The wound area was quantified by ImageJ software. Student's t-test was used to compare data between two groups; P<0.05 was considered to be significant.

[2] = test system: KIBA mice that overexpress hVEGF; test: Retinal function tests (ERG) in KIBA/KIMBA mice overexpressing hVEGF; assay type: in vivo, mouse; settings: IVT treated; 2nd IVT at 12 weeks after 1st treatment
Protocol: Eight-week-old KIBA mice that overexpress hVEGF were dark-adapted overnight (for at least 12 hours) and all the procedures were carried out under dim red light. Mice were anesthetized with a combination of ketamine (20 mg/kg body weight) and xylazine (2 mg/kg body weight). Pupils were dilated with a topical administration of 1% tropicamide (Alcon Laboratories, Inc., Fort Worth, Tex., USA) and 2.5% phenylephrine (Bausch and Lomb Pharmaceuticals, Inc., Tampa, Fla., USA) ophthalmic solutions.
Animals were placed in ERG recording table with body temperature controller for ERG recordings. Electroretinograms were recorded (Espion; Diagnosys LLC, Lowell, Mass., USA) with corneal monopolar electrodes. A goldcup electrode was placed in the mouth to serve as the reference electrode, and a silver-silver chloride electrode (Grass-Telefactor, West Warwick, R.I., USA) was placed in the tail to serve as the ground electrode. Recordings were performed at a wide range of stimulus intensity (−3.0 to 1.0 log cd·s/m2) in dark-adapted (scotopic) condition. The response a teach flash intensity was an average of at least five trials. […]
ERG was recorded from 8 weeks old to 24 weeks old of mice in untreated group (naïve group). In Angio-3 IVT treated group, ERG was recorded at 8 weeks old as baseline (BL) and then 6 and 12 weeks post treatment. […]

[3] = test system: retinal function (a- and b-wave) in B6J WT mice; test: Retinal function test (ERG) in laser-induced CNV mice; assay type: in vivo, mouse; settings: laser-induced CNV mice with and without Angio-3 treatment
Protocol: (§1) FIG. 3A is a schematic of the experimental design on the efficacy of Angio-3 in a laser-induced choroidal neovascularization (CNV) model in mice (B6J WT mice). FIG. 3B are FFA images of baseline and at different time points post treatment. IV single injection of 100 μL of Angio-3 (25 mg/Kg Bwt) was given at Day 0 (prevention mode) and 4 days after laser (regression mode) and followed for 10 weeks. FIG. 3C is a graph showing the area of leakage by each eye for various groups. FIG. 3D are graphs of the mean area of leakage of all batches for each group. […] The attenuation retinal vascularization was better than scrambled peptide. n=6 eyes per batch; n=3 batches. Values are expressed as means±s.e.m., **P<0.01, *P<0.05, student's t-test. FIG. 3E is a graph of the result of the Retinal Function Test that measures ERG changes in Angio-3 treated and control.
Animals were dark-adapted overnight (12 h), and the preparations for recordings were carried out under dim red light. Anesthesia and pupil dilation were induced as described. Animals were lightly secured to a stage with fastener strips across the upper and lower back to ensure a stable, reproducible position for ERG recordings. […] ERGs were recorded (Espion; Diagnosis LLC, Redwood City, Calif.) with corneal monopolar electrodes (Mayo, Aichi, Japan). […]

[4] = test system: laser-induced CNV in C57/BL6J (B6J) wild type mice; test: Laser-induced choroidal neovascularization (CNV) model in mice, area of leakage by FFA; assay type: in vivo; settings: mice; IV route
Protocol: as §1
FIG. 4A is a schematic of the experimental design on the efficacy of Angio-3 by IVT administration. […]
FIG. 11 A are FFA images of baseline and at different time points post treatment. Mice received single IVT injection of Angio-3 (at a dose of 1 μg in 1 μl or 100 ng in 1 μl), and chemically modified Angio-3 peptides Pep-N (at doses of 5 μg in μl; 1 μg in μl; and 100 ng in 1 μl, respectively) and Pep-Q peptides (at doses of 5 μg in μl; 1 μg in μl; and 100 ng in 1 μl, respectively). FIG. 11 B is a graph of the area of leakage by each eye. Single dose attenuates retinal angiogenesis in laser-induced mice CNV model via IVT route till 4 weeks. […] Eylea is the positive control. n=18 eyes per group; Values are expressed as means±s.e.m. n=3 independent experiment, **P<0.01, *P<0.05, student's t-test.
Laser induced choridal neo-vascularization (CNV) in C57/BL6J (B6J) wild type mice (n=90).
In B6J mice, single injection of 100 μl volume at 25 mg/kg Bwt concentration Angio-3 was injected via intravenous (i/v) route and this was tested in both Preventive mode (before laser) and Regression mode (4 days after laser). […]
Angio-3 was also injected via intravitreal (IVT) route, single injection of 1 μl volume at 2 different doses; 1 μg (High dose) and 100 ng (Low dose).
4 laser photocoagulation sites were placed concentrically around the optic disc of both eyes to induce CNVs. A diode laser (810 nm) was used with a relative potency scale of 120 mW for mice and 250 mW for rats, an exposure time of 0.05 s, and a spot size of […]. Laser spots were focused with crystal covers to avoid laser beam dispersion. Bubble formation was confirmed the rupture of Bruch's membrane.
Fundus photography and fundus fluorescein angiography (FFA) was imaged using a MICRON IV fundus camera (Phoenix Laboratories USA). For FFA, animals were intraperitoneally injected with 10% sodium fluorescein at a dose of 0.01 ml per 5-6 gm body weight.
In B6J mice, single intravitreous (IVT) injection of 100 ng, 1 μg, 5 μg PEP-Q, PEP-N (modified Angio-3), Angio-3 and Eylea were executed and this was tested in Prevention mode (before laser) Method of Llser induced CNV model and injection was described as above.

## TPHTHNRTPE [Angio-3, Thr Pro His Thr His Asn Arg Thr Pro Glu]
[1]
  normal corneal wound healing process (percentage of wound defect remaining): didn't adversely affect the normal wound healing process
[2]
  ERG a and b-wave responses (retinal function): increased the a and b-wave responses for 6 weeks post treatment and then again increased the response for 20 weeks with second dose
[3]
  retinal function (ERG a- and b-wave amplitude): no significant difference in retinal function
[4]
  natural wound healing process, menstrual cycle and behavioural change (safety of systemic route): did not affect the natural wound healing process, menstrual cycle and behavioural change
